Results: ChEMBL document CHEMBL3044552, “Synthesis and biological evaluation of 1-(3-chloro-2-oxo-4-phenylazetidin-1-yl)-3-(2-oxo-2-(10H-phenothiazin-10-yl)ethyl)urea derivatives” (Med Chem Res, 2013)
Values after ≈ are worked out from the molar mass of the structure shown. Active and inactive are the calls of the source. The calls are words filed in the database; no cut-off is given here.

How the values were obtained:
[1] = Antioxidant activity assessed as reduction of ferric ion after 30 min by spectrophotometric analysis; format: functional
[2] = test system: Pseudomonas aeruginosa; assay: Antibacterial activity against Pseudomonas aeruginosa after 24 hr by disc diffusion method; format: functional
[3] = test system: Pseudomonas aeruginosa; assay: Antibacterial activity against Pseudomonas aeruginosa after 18 hr by serial dilution method; format: functional
[4] = test system: Staphylococcus aureus; assay: Antibacterial activity against Staphylococcus aureus after 18 hr by serial dilution method; format: functional
[5] = test system: Vibrio cholerae; assay: Antibacterial activity against Vibrio cholerae after 24 hr by disk diffusion method; format: functional
[6] = test system: Vibrio cholerae; assay: Antibacterial activity against Vibrio cholerae after 18 hr by serial dilution method; format: functional
[7] = test system: Micrococcus luteus; assay: Antibacterial activity against Micrococcus luteus after 24 hr by disk diffusion method; format: functional
[8] = test system: Bacillus subtilis; assay: Antibacterial activity against Bacillus subtilis after 24 hr by disk diffusion method; format: functional
[9] = test system: Bacillus subtilis; assay: Antibacterial activity against Bacillus subtilis after 18 hr by serial dilution method; format: functional
[10] = test system: Micrococcus luteus; assay: Antibacterial activity against Micrococcus luteus after 18 hr by serial dilution method; format: functional
[11] = test system: Escherichia coli; assay: Antibacterial activity against Escherichia coli after 18 hr by serial dilution method; format: functional
[12] = test system: Staphylococcus epidermidis; assay: Antibacterial activity against Staphylococcus albus after 24 hr by disk diffusion method; format: functional
[13] = test system: Staphylococcus aureus; assay: Antibacterial activity against Staphylococcus aureus after 24 hr by disk diffusion method; format: functional
[14] = test system: Salmonella paratyphi; assay: Antibacterial activity against Salmonella enterica subsp. enterica serovar Paratyphi A after 18 hr by serial dilution method; format: functional
[15] = test system: Salmonella paratyphi; assay: Antibacterial activity against Salmonella enterica subsp. enterica serovar Paratyphi A after 24 hr by disk diffusion method; format: functional
[16] = test system: Staphylococcus epidermidis; assay: Antibacterial activity against Staphylococcus albus after 18 hr by serial dilution method; format: functional
[17] = test system: Escherichia coli; assay: Antibacterial activity against Escherichia coli after 24 hr by disc diffusion method; format: functional
[18] = test system: Monascus purpureus; assay: Antifungal activity against Monascus purpureus after 24 hr by disk diffusion method; format: functional
[19] = test system: Aspergillus niger; assay: Antifungal activity against Aspergillus niger after 18 hr by serial dilution method; format: functional
[20] = test system: Monascus purpureus; assay: Antifungal activity against Monascus purpureus after 18 hr by serial dilution method; format: functional
[21] = test system: Aspergillus niger; assay: Antifungal activity against Aspergillus niger after 24 hr by disc diffusion method; format: functional
[22] = test system: Trichophyton rubrum; assay: Antifungal activity against Trichophyton rubrum after 24 hr by disk diffusion method; format: functional
[23] = test system: Candida albicans; assay: Antifungal activity against Candida albicans after 24 hr by disk diffusion method; format: functional
[24] = test system: Trichophyton rubrum; assay: Antifungal activity against Trichophyton rubrum after 18 hr by serial dilution method; format: functional
[25] = test system: Radical scavenging activity; assay: Antioxidant activity assessed as DPPH radical scavenging activity after 30 min by spectrophotometric analysis; format: functional
[26] = test system: Candida albicans; assay: Antifungal activity against Candida albicans after 18 hr by serial dilution method; format: functional
[27] = test system: Mycobacterium tuberculosis; assay: Growth inhibition of Mycobacterium tuberculosis H37Rv at 1 ug/ml after 7 days by resazurin microplate assay; format: functional, organism-based
[28] = test system: Mycobacterium tuberculosis; assay: Growth inhibition of Mycobacterium tuberculosis H37Rv at 100 ug/ml after 7 days by resazurin microplate assay; format: functional, organism-based
[29] = test system: Mycobacterium tuberculosis; assay: Growth inhibition of Mycobacterium tuberculosis H37Rv at 10 ug/ml after 7 days by resazurin microplate assay; format: functional, organism-based

Molecule | diameter of the inhibition zone (DIZ) [2] [mm] | MIC [3] [µg/mL] | MIC [4] [µg/mL] | diameter of the inhibition zone (DIZ) [5] [mm] | MIC [6] [µg/mL] | diameter of the inhibition zone (DIZ) [7] [mm] | diameter of the inhibition zone (DIZ) [8] [mm] | MIC [9] [µg/mL] | MIC [10] [µg/mL] | MIC [11] [µg/mL] | diameter of the inhibition zone (DIZ) [12] [mm] | diameter of the inhibition zone (DIZ) [13] [mm] | MIC [14] [µg/mL] | diameter of the inhibition zone (DIZ) [15] [mm] | MIC [16] [µg/mL] | diameter of the inhibition zone (DIZ) [18] [mm] | MIC [19] [µg/mL] | MIC [20] [µg/mL] | diameter of the inhibition zone (DIZ) [21] [mm] | diameter of the inhibition zone (DIZ) [22] [mm] | also measured
FERROUS SULFATE | – | – | – | – | – | – | – | – | – | – | – | – | – | – | – | – | – | – | – | – | Activity [1]: Active
O=C(O)c1cn(C2CC2)c2cc(N3CCNCC3)c(F)cc2c1=O [CIPROFLOXACIN] | 22 | 62.5 (≈ 189 µM) | 62.5 (≈ 189 µM) | 15 | 125 (≈ 377 µM) | 16 | 25 | 62.5 (≈ 189 µM) | 125 (≈ 377 µM) | 62.5 (≈ 189 µM) | 23 | 20 | 125 (≈ 377 µM) | 18 | 62.5 (≈ 189 µM) | – | – | – | – | – | –
O=C(NCC(=O)N1c2ccccc2Sc2ccccc21)NN1C(=O)C(Cl)C1c1cccc(F)c1 (stereo not drawn) | 11 | 125 (≈ 252 µM) | 250 (≈ 503 µM) | 9 | 125 (≈ 252 µM) | 7 | 11 | 62.5 (≈ 126 µM) | 250 (≈ 503 µM) | 250 (≈ 503 µM) | 11 | 7 | 125 (≈ 252 µM) | 10 | 125 (≈ 252 µM) | 10 | 250 (≈ 503 µM) | 125 (≈ 252 µM) | 7 | 7 | diameter of the inhibition zone (DIZ) [17]: 6 mm; diameter of the inhibition zone (DIZ) [23]: 11 mm; MIC [24]: 125 µg/mL (≈ 252 µM); Activity [1]: Active; EC50 [25]: 47 µg/mL (≈ 94.6 µM); MIC [26]: 125 µg/mL (≈ 252 µM)
Clc1ccccc1C(c1ccccc1)(c1ccccc1)n1ccnc1 [CLOTRIMAZOLE] | – | – | – | – | – | – | – | – | – | – | – | – | – | – | – | 20 | 125 (≈ 362 µM) | 62.5 (≈ 181 µM) | 4 | 22 | MIC [24]: 62.5 µg/mL (≈ 181 µM); MIC [26]: 62.5 µg/mL (≈ 181 µM)
COc1ccc(C2C(Cl)C(=O)N2NC(=O)NCC(=O)N2c3ccccc3Sc3ccccc32)cc1 (stereo not drawn) | 7 | 125 (≈ 246 µM) | 250 (≈ 491 µM) | 9 | 125 (≈ 246 µM) | 7 | 7 | 250 (≈ 491 µM) | 250 (≈ 491 µM) | 125 (≈ 246 µM) | 10 | 5 | 125 (≈ 246 µM) | 8 | 62.5 (≈ 123 µM) | 6 | 125 (≈ 246 µM) | 250 (≈ 491 µM) | 10 | 6 | diameter of the inhibition zone (DIZ) [17]: 8 mm; diameter of the inhibition zone (DIZ) [23]: 7 mm; MIC [24]: 250 µg/mL (≈ 491 µM); MIC [26]: 250 µg/mL (≈ 491 µM)
O=C1O[C@H]([C@@H](O)CO)C(O)=C1O [ASCORBIC ACID] | – | – | – | – | – | – | – | – | – | – | – | – | – | – | – | – | – | – | – | – | EC50 [25]: 40 µg/mL (≈ 227 µM)
O=C(NCC(=O)N1c2ccccc2Sc2ccccc21)NN1C(=O)C(Cl)C1c1cccc(Cl)c1 (stereo not drawn) | 10 | 125 (≈ 243 µM) | 250 (≈ 487 µM) | 8 | 250 (≈ 487 µM) | 5 | 11 | 125 (≈ 243 µM) | 250 (≈ 487 µM) | 500 (≈ 974 µM) | 11 | 7 | 125 (≈ 243 µM) | 10 | 125 (≈ 243 µM) | 7 | 250 (≈ 487 µM) | 250 (≈ 487 µM) | 7 | 6 | diameter of the inhibition zone (DIZ) [17]: 5 mm; growth inhibition (GI) [27]: inactive; diameter of the inhibition zone (DIZ) [23]: 12 mm; MIC [24]: 250 µg/mL (≈ 487 µM); growth inhibition (GI) [28]: Active; growth inhibition (GI) [29]: Active; MIC [26]: 62.5 µg/mL (≈ 122 µM)
COc1cc(C2C(Cl)C(=O)N2NC(=O)NCC(=O)N2c3ccccc3Sc3ccccc32)ccc1O (stereo not drawn) | 10 | 125 (≈ 238 µM) | 250 (≈ 476 µM) | 10 | 125 (≈ 238 µM) | 8 | 6 | 250 (≈ 476 µM) | 250 (≈ 476 µM) | 125 (≈ 238 µM) | 5 | 7 | 125 (≈ 238 µM) | 10 | 250 (≈ 476 µM) | 7 | 250 (≈ 476 µM) | 250 (≈ 476 µM) | 5 | 4 | diameter of the inhibition zone (DIZ) [17]: 10 mm; diameter of the inhibition zone (DIZ) [23]: 10 mm; MIC [24]: 250 µg/mL (≈ 476 µM); MIC [26]: 125 µg/mL (≈ 238 µM)
O=C(NCC(=O)N1c2ccccc2Sc2ccccc21)NN1C(=O)C(Cl)C1c1ccccc1Cl (stereo not drawn) | 7 | 250 (≈ 487 µM) | 500 (≈ 974 µM) | 6 | 250 (≈ 487 µM) | 7 | 7 | 250 (≈ 487 µM) | 250 (≈ 487 µM) | 250 (≈ 487 µM) | 5 | 4 | 125 (≈ 243 µM) | 12 | 250 (≈ 487 µM) | 10 | 125 (≈ 243 µM) | 125 (≈ 243 µM) | 8 | 10 | diameter of the inhibition zone (DIZ) [17]: 8 mm; diameter of the inhibition zone (DIZ) [23]: 12 mm; MIC [24]: 125 µg/mL (≈ 243 µM); Activity [1]: Active; EC50 [25]: 57 µg/mL (≈ 111 µM); MIC [26]: 62.5 µg/mL (≈ 122 µM)
CO[C@H]1/C=C/O[C@@]2(C)Oc3c(C)c(O)c4c(O)c(c(/C=N/N5CCN(C)CC5)c(O)c4c3C2=O)NC(=O)/C(C)=C\C=C\[C@H](C)[C@H](O)[C@@H](C)[C@@H](O)[C@@H](C)[C@H](OC(C)=O)[C@@H]1C | – | – | – | – | – | – | – | – | – | – | – | – | – | – | – | – | – | – | – | – | growth inhibition (GI) [27]: Active; growth inhibition (GI) [29]: Active
